Data reported in patent US8933012B2, “Glycopeptide antibiotic derivative” (priority 2006, dated 2015).
Converted amounts (≈) assume the structure as drawn.

Assays:
[1] = system: methicillin-resistant Staphylococcus aureus S. aureus SR3637 (H-MRSA); assay: In vitro antimicrobial activity, MIC by microdilution method; type: cell-based
Protocol: (§1) In Vitro Assay of Antimicrobial Activity
(§2) For several compounds of the invention, minimal inhibitory concentration (MIC) was determined by the microdilution method using cation adjusted Mueller-Hinton broth well known in the art.

[2] = system: vancomycin-resistant enterococcus E. faecalis SR7914 (VanA); assay: as above; type: cell-based
Protocol: as §1, §2

[3] = Single-dose intravenous toxicity screening test in mouse; type: in vivo; conditions: single intravenous dose 30 mg/kg, compared with corresponding compound having -COOH at the C-terminal
Protocol: The compounds of the invention were tested for water solubility and toxicity.

| SMILES | MIC [1] | MIC [2] | histological findings in kidney etc. [3] |
| --- | --- | --- | --- |
| CN[C@H](CC(C)C)C(=O)NC1C(=O)N[C@@H](CC(N)=O)C(=O)N[C@H]2C(=O)N[C@H]3C(=O)NC(C(=O)NC(C(=O)NO)c4cc(O)cc(O)c4-c4cc3ccc4O)[C@H](O)c3ccc(c(Cl)c3)Oc3cc2cc(c3OC2O[C@H](CO)[C@@H](O)[C@H](O)[C@H]2OC2C[C@](C)(NCCC3CCN(C(=O)Nc4ccc(OC(F)(F)F)cc4)CC3)[C@H](O)[C@H](C)O2)Oc2ccc(cc2Cl)[C@H]1O (stereo partly drawn) [Example 4] | 0.5 µg/mL (≈ 0.281 µM) | 4 µg/mL (≈ 2.25 µM) |  |
| CCNNC(=O)C1NC(=O)C2NC(=O)[C@H](NC(=O)[C@@H]3NC(=O)[C@H](CC(N)=O)NC(=O)C(NC(=O)[C@@H](CC(C)C)NC)[C@H](O)c4ccc(c(Cl)c4)Oc4cc3cc(c4OC3O[C@H](CO)[C@@H](O)[C@H](O)[C@H]3OC3C[C@](C)(NCc4cccc(NC(=O)c5ccc(OC(F)(F)F)cc5)c4)[C@H](O)[C@H](C)O3)Oc3ccc(cc3Cl)[C@H]2O)c2ccc(O)c(c2)-c2c(O)cc(O)cc21 (stereo partly drawn) [Example 2] |  |  | good histological findings |
